Assay results from PubChem BioAssay (NCI).
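96-well plates; 48 h exposure; 5 concentrations. Endpoints by linear interpolation between flanking doses. Not reached: highest tested concentration assigned. GI50 = concentration required for 50% inhibition of growth. At the TGI there is no net growth.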

What was measured:
Test in all cases: inhibition of tumour cell growth, NCI panel, 48 h
SK-OV-3 ovarian = tested on: SK-OV-3 ovarian
OVCAR-8 ovarian = tested on: OVCAR-8 ovarian
SF-295 CNS = tested on: SF-295 CNS
NCI/ADR-RES ovarian = tested on: NCI/ADR-RES ovarian
CCRF-CEM leukemia = tested on: CCRF-CEM leukemia
UACC-62 melanoma = tested on: UACC-62 melanoma
MDA-MB-435 = tested on: MDA-MB-435
OVCAR-3 ovarian = tested on: OVCAR-3 ovarian
SR leukemia = tested on: SR leukemia
SNB-19 CNS = tested on: SNB-19 CNS
HCT-15 colon = tested on: HCT-15 colon
HCT-116 colon = tested on: HCT-116 colon
MALME-3M melanoma = tested on: MALME-3M melanoma
A549 NSCLC = tested on: A549 NSCLC
U251 CNS = tested on: U251 CNS
SF-268 CNS = tested on: SF-268 CNS
HCC-2998 colon = tested on: HCC-2998 colon
HS 578T breast = tested on: HS 578T breast
BT-549 breast = tested on: BT-549 breast
T-47D breast = tested on: T-47D breast
CAKI-1 renal = tested on: CAKI-1 renal
SK-MEL-5 melanoma = tested on: SK-MEL-5 melanoma
HL-60(TB) leukemia = tested on: HL-60(TB) leukemia
K-562 leukemia = tested on: K-562 leukemia
SN12C renal = tested on: SN12C renal
EKVX NSCLC = tested on: EKVX NSCLC
OVCAR-4 ovarian = tested on: OVCAR-4 ovarian
SNB-75 CNS = tested on: SNB-75 CNS
MDA-MB-231 breast = tested on: MDA-MB-231 breast

Compound: COc1nc(N)nc2c1ncn2[C@@H]1O[C@H](CO)[C@@H](O)[C@@H]1O
- GI50 (SK-OV-3 ovarian): > 100 µM
- TGI (SK-OV-3 ovarian): > 100 µM
- GI50 (OVCAR-8 ovarian): > 100 µM
- TGI (OVCAR-8 ovarian): > 100 µM
- GI50 (SF-295 CNS): > 100 µM
- TGI (SF-295 CNS): > 100 µM
- GI50 (NCI/ADR-RES ovarian): > 100 µM
- TGI (NCI/ADR-RES ovarian): > 100 µM
- GI50 (CCRF-CEM leukemia): 2.66 µM
- TGI (CCRF-CEM leukemia): > 100 µM
- GI50 (UACC-62 melanoma): > 100 µM
- TGI (UACC-62 melanoma): > 100 µM
- GI50 (MDA-MB-435): > 100 µM
- TGI (MDA-MB-435): > 100 µM
- GI50 (OVCAR-3 ovarian): > 100 µM
- TGI (OVCAR-3 ovarian): > 100 µM
- GI50 (SR leukemia): > 100 µM
- TGI (SR leukemia): > 100 µM
- GI50 (SNB-19 CNS): > 100 µM
- TGI (SNB-19 CNS): > 100 µM
- GI50 (HCT-15 colon): > 100 µM
- TGI (HCT-15 colon): > 100 µM
- GI50 (HCT-116 colon): > 100 µM
- TGI (HCT-116 colon): > 100 µM
- GI50 (MALME-3M melanoma): > 100 µM
- TGI (MALME-3M melanoma): > 100 µM
- GI50 (A549 NSCLC): > 100 µM
- TGI (A549 NSCLC): > 100 µM
- GI50 (U251 CNS): > 100 µM
- TGI (U251 CNS): > 100 µM
- GI50 (SF-268 CNS): > 100 µM
- TGI (SF-268 CNS): > 100 µM
- GI50 (HCC-2998 colon): > 100 µM
- TGI (HCC-2998 colon): > 100 µM
- GI50 (HS 578T breast): > 100 µM
- TGI (HS 578T breast): > 100 µM
- GI50 (BT-549 breast): > 100 µM
- TGI (BT-549 breast): > 100 µM
- GI50 (T-47D breast): > 100 µM
- TGI (T-47D breast): > 100 µM
- GI50 (CAKI-1 renal): > 100 µM
- TGI (CAKI-1 renal): > 100 µM
- GI50 (SK-MEL-5 melanoma): > 100 µM
- TGI (SK-MEL-5 melanoma): > 100 µM
- GI50 (HL-60(TB) leukemia): > 100 µM
- TGI (HL-60(TB) leukemia): > 100 µM
- GI50 (K-562 leukemia): > 100 µM
- TGI (K-562 leukemia): > 100 µM
- GI50 (SN12C renal): > 100 µM
- TGI (SN12C renal): > 100 µM
- GI50 (EKVX NSCLC): > 100 µM
- TGI (EKVX NSCLC): > 100 µM
- GI50 (OVCAR-4 ovarian): > 100 µM
- TGI (OVCAR-4 ovarian): > 100 µM
- GI50 (SNB-75 CNS): > 100 µM
- TGI (SNB-75 CNS): > 100 µM
- GI50 (MDA-MB-231 breast): > 100 µM
- TGI (MDA-MB-231 breast): > 100 µM
